Converted amounts (≈) assume the structure as drawn. Square brackets hold non-standard residues; d marks the D form. Peptide text beside a SMILES is read from it.
What was measured:
Type in all cases: cell-based
Escherichia coli K12 = experiment: MIC/MBC (Example 10, MH medium); conditions: Table 4
Method: (§1) The MIC is determined using a growth inhibition test in liquid medium. The MIC is defined as being the lowest peptide concentration capable of inhibiting the bacterial strain tested, after incubation for 18 h at 37° C. The test was carried out in a sterile microtitration plate containing 96 wells. A series of increasing concentrations of each peptide (0.2 to 100 µM) was prepared beforehand in sterile MilliQ water. In each well, 10 µL of peptide was incubated with 90 µL of bacterial suspension (10^7 cfu/mL) in yeast extract-free LB medium. The microplate was incubated at 37° C. for 18 h. The bacterial growth was evaluated by measuring the OD at 620 nm using a plate reader.
(§2) The negative growth inhibition control was obtained by replacing the solution containing the peptide by sterile MilliQ water. The positive control suitable for completely inhibiting the growth of the bacterial strains was obtained by replacing the solution containing the peptide by 10 µL of formaldehyde.
(§3) The results are interpreted by calculating the percentage of bacterial growth in each well according to the formula:
(§4) %Growth = (OD well - OD of T0)/(OD of T100-OD of T0)*100 where
(§5) • OD of T100 = OD of growth control (bacterial suspension free from sample under test, 100% growth), • OD of T0 = OD of sterility control (culture medium + bacterium + 10 µL formaldehyde, 0% growth) and • OD well = OD of well for which it is sought to calculate the growth percentage (bacterial suspension + peptide under test).
(§6) The MBC is defined as being the minimum peptide concentration leaving no surviving bacteria of the inoculum after incubation at 37° C. for 24 hours. This test consists of smearing the contents of the well wherein the peptide has inhibited bacterial growth on a Petri dish (LB agar), followed by incubation for 24 h at 37° C.
(§7) A 10 mL preculture in Muller-Hinton (MH) medium is prepared by inoculating a colony of the bacterial strain of interest. The preculture is incubated at 37° C. under stirring overnight. The culture is subcultured to 1:100 under the same conditions. The culture concentration is evaluated by measuring the turbidity at 600 nm (OD600 nm 1.0 = 5 × 10^8 CFU/mL for E. coli (Gram-negative bacteria) and 1.5 × 10^8 CFU/mL for S. aureus (Gram-positive bacteria). Once the exponential growth phase (OD600 nm = 0.3 - 0.7) has been achieved, the cultures are diluted in MH medium so as to obtain 10^6 CFU/mL (final inoculum concentration).
(§8) The MIC and the MBC were determined as per the protocol described in part 2.1 of Example 2.

[1] = tested on: Salmonella enterica CIP 8297; experiment: MIC/MBC (Example 10, MH medium); conditions: Table 4
Method: as §1, §2, §3, §4, §5, §6, §7, §8

[2] = tested on: Listeria monocytogenes SOR 100; experiment: MIC/MBC (Example 10, MH medium); conditions: Table 4
Method: as §1, §2, §3, §4, §5, §6, §7, §8

[3] = tested on: Staphylococcus aureus ATCC 6538; experiment: MIC/MBC (Example 10, MH medium)
Method: as §1, §2, §3, §4, §5, §6, §7, §8

[4] = tested on: Vibrio parahemolyticus IFREMER 01/252; experiment: MIC/MBC (Example 10, MH medium); conditions: Table 4
Method: as §1, §2, §3, §4, §5, §6, §7, §8

[5] = tested on: Escherichia coli P7 (ESBL); experiment: MIC/MBC (Example 10, MH medium); conditions: Table 4
Method: as §1, §2, §3, §4, §5, §6, §7, §8

[6] = tested on: Klebsiella pneumoniae CIP 52.211; experiment: MIC/MBC (Example 10, MH medium); conditions: Table 4
Method: as §1, §2, §3, §4, §5, §6, §7, §8

[7] = tested on: Klebsiella oxytoca CIP 7932; experiment: MIC/MBC (Example 10, MH medium); conditions: Table 4
Method: as §1, §2, §3, §4, §5, §6, §7, §8

[8] = tested on: Yersinia ruckeri ATCC 29473; experiment: MIC/MBC (Example 10, MH medium); conditions: Table 4
Method: as §1, §2, §3, §4, §5, §6, §7, §8

[9] = tested on: Enterococcus faecalis CIP A186; experiment: MIC/MBC (Example 10, MH medium); conditions: Table 4
Method: as §1, §2, §3, §4, §5, §6, §7, §8

[10] = tested on: Pseudomonas aeruginosa ATCC 9027; experiment: MIC/MBC (Example 10, MH medium)
Method: as §1, §2, §3, §4, §5, §6, §7, §8

[11] = tested on: Staphylococcus aureus ST 1065; experiment: MIC/MBC (Example 10, MH medium); conditions: Table 4
Method: as §1, §2, §3, §4, §5, §6, §7, §8

[12] = tested on: Kocuria rhizophila ATCC 9341; experiment: MIC/MBC (Example 10, MH medium); conditions: Table 4
Method: as §1, §2, §3, §4, §5, §6, §7, §8

[13] = tested on: Staphylococcus aureus MRSA; experiment: MIC/MBC (Example 10, MH medium); conditions: Table 4
Method: as §1, §2, §3, §4, §5, §6, §7, §8

[14] = tested on: Enterococcus faecalis CIP 103015; experiment: MIC/MBC (Example 10, MH medium)
Method: as §1, §2, §3, §4, §5, §6, §7, §8

[15] = tested on: Pseudomonas aeruginosa ATCC 27853; experiment: MIC/MBC (Example 10, MH medium); conditions: Table 4
Method: as §1, §2, §3, §4, §5, §6, §7, §8

[16] = tested on: Lactococcus garviae ATCC 43921; experiment: MIC/MBC (Example 10, MH medium); conditions: Table 4
Method: as §1, §2, §3, §4, §5, §6, §7, §8

Escherichia coli ML35p = experiment: MIC/MBC (Example 10, MH medium); conditions: Table 4
Method: as §1, §2, §3, §4, §5, §6, §7, §8

[17] = tested on: Staphylococcus epidermidis BM 3302; experiment: MIC/MBC (Example 10, MH medium); conditions: Table 4
Method: as §1, §2, §3, §4, §5, §6, §7, §8

[18] = tested on: Escherichia coli ATCC 8739; experiment: MIC/MBC (Example 10, MH medium)
Method: as §1, §2, §3, §4, §5, §6, §7, §8

[19] = tested on: immune cells obtained from mouse bone marrow; experiment: Cytotoxic effects on immune cells obtained from mouse bone marrow; conditions: 12.5 µM; 2 hours
Method: The mouse immune cells are obtained from C57BL/6 or Balb/c mouse bone marrow. The peptides are incubated at 37° C., 5% CO2 in the presence of 500,000 immune cells in RPMI medium at varied concentrations for 2 hours. Peptide-free cells are used as the negative control and cells in the presence of DMSO (30%) are used as the positive control. After incubation, the cells are washed then labelled with Trypan blue so as to measure the cell viability by microscope counting. The LC50 is then calculated as being the concentration of DA2N, K12A and DANa peptides inducing the death of 50% of the immune cells.

[20] = Table 4, Staphylococcus aureus ATCC 6538
[21] = Table 4, Pseudomonas aeruginosa ATCC 9027
[22] = Table 5, P. aeruginosa ATCC 9027
[23] = Table 4, Enterococcus faecalis CIP 103015
[24] = Table 5, E. faecalis CIP 103015
[25] = Table 4, Escherichia coli ATCC 8739

CC[C@H](C)[C@H](NC(=O)CN)C(=O)NCC(=O)N[C@@H](C)C(=O)N[C@H](C(=O)N[C@@H](CC(C)C)C(=O)N[C@@H](CCCCN)C(=O)N[C@H](C(=O)N[C@@H](CC(C)C)C(=O)N[C@H](C(=O)N[C@H](C(=O)NCC(=O)N[C@@H](CC(C)C)C(=O)N1CCC[C@H]1C(=O)N[C@@H](C)C(=O)N[C@@H](CC(C)C)C(=O)N[C@H](C(=O)N[C@@H](CO)C(=O)N[C@@H](Cc1c[nH]c2ccccc12)C(=O)N[C@H](C(=O)N[C@@H](CCCCN)C(=O)N[C@@H](CCCNC(=N)N)C(=O)N[C@@H](CCCCN)C(=O)N[C@@H](CCCNC(=N)N)C(=O)N[C@@H](CCC(N)=O)C(=O)N[C@@H](CCC(N)=O)C(N)=O)[C@@H](C)CC)[C@@H](C)CC)[C@@H](C)O)[C@@H](C)O)C(C)C)C(C)C [Melittin]
MBC (Escherichia coli K12): 10 µM (≈ 28.5 µg/mL) | MIC (Escherichia coli K12): 10 µM (≈ 28.5 µg/mL) | MBC [1]: > 50 µM | MIC [1]: 50 µM (≈ 142 µg/mL) | MBC [2]: 3.12 µM (≈ 8.88 µg/mL) | MIC [2]: 1.5 µM (≈ 4.27 µg/mL) | MBC [3, 20]: 5 µM (≈ 14.2 µg/mL) | MIC [3, 20]: 5 µM (≈ 14.2 µg/mL) | MBC ([3]; Table 5, S. aureus ATCC 6538): 5 µM (≈ 14.2 µg/mL) | MIC ([3]; Table 5, S. aureus ATCC 6538): 5 µM (≈ 14.2 µg/mL) | MBC [4]: > 50 µM | MIC [4]: > 50 µM | MBC [5]: 6.25 µM (≈ 17.8 µg/mL) | MIC [5]: 6.25 µM (≈ 17.8 µg/mL) | MBC [6]: 10 µM (≈ 28.5 µg/mL) | MIC [6]: 10 µM (≈ 28.5 µg/mL) | MBC [7]: 50 µM (≈ 142 µg/mL) | MIC [7]: 25 µM (≈ 71.2 µg/mL) | MBC [8]: 12.5 µM (≈ 35.6 µg/mL) | MIC [8]: 6.25 µM (≈ 17.8 µg/mL) | MBC [9]: 12.5 µM (≈ 35.6 µg/mL) | MIC [9]: 12.5 µM (≈ 35.6 µg/mL) | MBC [10, 21]: 5 µM (≈ 14.2 µg/mL) | MIC [10, 21]: 5 µM (≈ 14.2 µg/mL) | MBC [10, 22]: 5 µM (≈ 14.2 µg/mL) | MIC [10, 22]: 5 µM (≈ 14.2 µg/mL) | MBC [11]: 10 µM (≈ 28.5 µg/mL) | MIC [11]: 10 µM (≈ 28.5 µg/mL) | MBC [12]: 0.8 µM (≈ 2.28 µg/mL) | MIC [12]: 0.8 µM (≈ 2.28 µg/mL) | MBC [13]: 12.5 µM (≈ 35.6 µg/mL) | MIC [13]: 6.25 µM (≈ 17.8 µg/mL) | MBC [14, 23]: 1.25 µM (≈ 3.56 µg/mL) | MIC [14, 23]: 1.25 µM (≈ 3.56 µg/mL) | MBC [14, 24]: 1.2 µM (≈ 3.42 µg/mL) | MIC [14, 24]: 1.2 µM (≈ 3.42 µg/mL) | MBC [15]: > 50 µM | MIC [15]: 50 µM (≈ 142 µg/mL) | MBC [16]: 25 µM (≈ 71.2 µg/mL) | MIC [16]: 6.25 µM (≈ 17.8 µg/mL) | MBC (Escherichia coli ML35p): 10 µM (≈ 28.5 µg/mL) | MIC (Escherichia coli ML35p): 10 µM (≈ 28.5 µg/mL) | MBC [17]: 10 µM (≈ 28.5 µg/mL) | MIC [17]: 10 µM (≈ 28.5 µg/mL) | MBC [18, 25]: 2.5 µM (≈ 7.12 µg/mL) | MIC [18, 25]: 2.5 µM (≈ 7.12 µg/mL) | MBC ([18]; Table 5, E. coli ATCC 8739): 2.5 µM (≈ 7.12 µg/mL) | MIC ([18]; Table 5, E. coli ATCC 8739): 2.5 µM (≈ 7.12 µg/mL)

CSCC[C@@H](NC(=O)[C@@H](CC(N)=O)NC(=O)[C@H](NC(=O)[C@H](NC(=O)[C@@H](C)NC(=O)[C@@H](CC(N)=O)NC(=O)[C@@H](CC(C)C)NC(=O)[C@H](NC(=O)[C@@H](C)NC(=O)[C@@H](CCCCN)NC(=O)CNC(=O)[C@@H](C)NC(=O)[C@H](NC(=O)[C@@H](CCCCN)NC(=O)CNC(=O)[C@H](NC(=O)[C@@H](CCCCN)NC(=O)[C@@H](CCCCN)NC(=O)[C@@H](CC(C)C)NC(=O)[C@@H](CC(C)C)NC(=O)[C@H](NC(=O)[C@@H](CCCCN)NC(=O)[C@@H](Cc1c[nH]c2ccccc12)NC(=O)[C@@H](CC(C)C)NC(=O)[C@@H](C)N)[C@H](C)O)C(C)C)C(C)C)C(C)C)C(C)C)[C@H](C)O)C(=O)N[C@H](C)C(=O)N[C@H](CC(N)=O)C(=O)N[C@H](CCC(N)=O)C(=O)N[C@H](CC(N)=O)C(=O)O [DA2N (D), dAdLdWdKdTdLdLdKddKdVdGdKdVdAdGdKdAdVdLdNdAdVdTdNdMdAdNdQdN] (H-[dA][dL][dW][dK][dT][dL][dL][dK][dK][dV]G[dK][dV][dA]G[dK][dA][dV][dL][dN][dA][dV][dT][dN][dM][dA][dN][dQ][dN]-OH; N-terminus and C-terminus assumed)
MBC ([3]; Table 5, S. aureus ATCC 6538): 0.8 µM (≈ 2.47 µg/mL) | MIC ([3]; Table 5, S. aureus ATCC 6538): 0.8 µM (≈ 2.47 µg/mL) | MBC [10, 22]: 0.8 µM (≈ 2.47 µg/mL) | MIC [10, 22]: 0.8 µM (≈ 2.47 µg/mL) | MBC [14, 24]: 3.1 µM (≈ 9.55 µg/mL) | MIC [14, 24]: 3.1 µM (≈ 9.55 µg/mL) | MBC ([18]; Table 5, E. coli ATCC 8739): 0.8 µM (≈ 2.47 µg/mL) | MIC ([18]; Table 5, E. coli ATCC 8739): 0.4 µM (≈ 1.23 µg/mL) | death of immune cells [19]: induce the death of immune cells at a concentration of 12.5 µM with a comparable efficacy to DA2N

Source: patent US20230192772A1, “ANTIMICROBIAL PEPTIDES AND USES THEREOF” (SORBONNE UNIVERSITE, priority 2016, published 2023)
